Laboratory results as given in patent US20030027286A1, “Bacterial promoters and methods of use” (priority 2000, published 2003).

Experiments:
[1] = system: Staphylococcus aureus cells expressing antisense to the β subunit of gyrase; assay: Antibiotic IC50 plus/minus xylose in Staphylococcus aureus expressing antisense to gyrase β subunit; format: cell-based; conditions: antisense to gyrase β subunit under Xyl-T5; 12 mM vs 0 mM xylose; FIG. 15
Description: Sensitized cells were also used to identify the pathway in which a gene required for proliferation of Staphylococcus aureus lies. Antibiotics of various chemical classes and modes of action were purchased from chemical suppliers, for example Sigma Chemicals (St. Louis, Mo.). Stock solutions were prepared by dissolving each antibiotic in an appropriate aqueous solution based on information provided by the manufacturer. The final working solution of each antibiotic contained no more than 0.2% (w/v) of any organic solvent.
To determine its potency against a bacterial strain containing an antisense nucleic acid complementary to the sequence encoding the Beta (>) subunit of gyrase (which is required for proliferation) under the control of the Xyl-T5 fusion promoter, each antibiotic was serially diluted two or three fold in growth medium supplemented with the appropriate antibiotic for maintenance of the anti-sense construct. At least ten dilutions were prepared for each antibiotic.
Aliquots (25 μL) of each dilution were transferred to discrete wells of a 384-well microplate (the assay plate) using a multi-channel pipette. Quadruplicate wells were used for each dilution of an antibiotic under each treatment condition (plus and minus inducer). Each assay plate retained twenty wells for cell growth controls (growth media replacing antibiotic), ten wells for each treatment (plus and minus inducer, in this example xylose). Half the assay plate contained induced cells (in this example Staphylococcus aureus cells) and appropriate concentrations of inducer (in this example xylose) to maintain the state of induction while the other half of the assay plate contained non-induced cells in the absence of inducer.
Cells of a bacterial clone containing a construct in which expression of antisense complementary to the sequence encoding the β subunit of gyrase under the control of a xylose inducible promoter were grown into exponential growth (OD600 0.2 to 0.3) and then diluted 1:100 into fresh media containing either 12 mM or 0 mM inducer (xylose). These cultures were incubated at 37° C. for 2.5 hr. The presence of inducer (xylose) in the medium initiates and maintains production of antisense RNA from the antisense construct, in this case. After a 2.5 hr incubation, induced and non-induced cells were respectively diluted into an assay medium containing an appropriate concentration of the antibiotic for the maintenance of the anti-sense construct. In addition, medium used to dilute induced cells was supplemented with 24 mM xylose so that addition to the assay plate would result in a final xylose concentration of 12 mM. The cells were diluted to a final OD600 value of 0.0004.
Induced and non-induced cell suspensions were dispensed (25 :l/well) into the appropriate wells of the assay plate as discussed previously. The plate was then loaded into a plate reader and incubated at constant temperature while cell growth was monitored in each well by the measurement of light scattering at 595 nm. Growth was monitored every 5 minutes until the cell culture attained a stationary growth phase. For each concentration of antibiotic, a percentage inhibition of growth was calculated at the time point corresponding to mid-exponential growth for the associated control wells (no antibiotic, plus or minus xylose). For each antibiotic and condition (plus or minus xylose), plots of percent inhibition versus Log of antibiotic concentration were generated and IC50s determined.

[2] = system: E. coli expressing antisense RNA; assay: Antibiotic sensitivity of E. coli sensitized by IPTG-induced antisense RNA; format: cell-based, Escherichia coli; conditions: for sensitivity to antibiotic of antisense-expressing clones: initial experiments
Source text: The effectiveness of the above cell-based assay was validated using constructs expressing antisense RNA to the proliferation required E. coli genes rplL, rplJ, and rplW encoding ribosomal proteins L7/L12, L10 and L23 respectively. These proteins are part of the protein synthesis apparatus of the cell and as such are required for proliferation. These constructs were used to test the effect of antisense expression on cell sensitivity to antibiotics known to bind to the ribosome and thereby inhibit protein synthesis. Constructs expressing antisense RNA to several other genes (elaD, visC, yohH, and atpE/B), the products of which are not involved in protein synthesis were used for comparison.
First, pLex5BA (Krause et al. 1997. J. Mol. Biol. 274: 365, the disclosure of which is incorporated herein by reference in its entirety) expression vectors containing antisense constructs to either rplW or to elaD were introduced into separate E. coli cell populations. Vector introduction is a technique well known to those of ordinary skill in the art. The expression vectors of this example contain IPTG inducible promoters that drive the expression of the antisense RNA in the presence of the inducer. However, those skilled in the art will appreciate that other inducible promoters may also be used. Suitable expression vectors are also well known in the art. The E. coli antisense clones to genes encoding ribosomal proteins L7/L12, L10 and L23 were used to test the effect of antisense expression on cell sensitivity to the antibiotics known to bind to these proteins. […]
The cell populations were exposed to a range of IPTG concentrations in liquid medium to obtain the growth inhibitory dose curve for each clone. First, seed cultures were grown to a particular turbidity that is measured by the optical density (OD) of the growth solution. […] The cells were grown for up to 15 hours and the extent of growth was determined by measuring the optical density of the cultures at 600 nm. […]

SMILES | potency in induced cells as compared to uninduced cells [1] | other results
CO/N=C(\C(=O)N[C@@H]1C(=O)N2C(C(=O)O)=C(COC(C)=O)CS[C@H]12)c1csc(N)n1 [cefotaxime] | not significantly different | 
CO[C@@]1(NC(=O)Cc2cccs2)C(=O)N2C(C(=O)O)=C(COC(N)=O)CS[C@@H]21 [cefoxitin] | not significantly different | 
CC[C@H]1OC(=O)[C@H](C)[C@@H](O[C@H]2C[C@@](C)(OC)[C@@H](O)[C@H](C)O2)[C@H](C)[C@@H](O[C@@H]2O[C@H](C)C[C@H](N(C)C)[C@H]2O)[C@](C)(O)C[C@@H](C)C(=O)[C@H](C)[C@@H](O)[C@]1(C)O [erythromycin] |  | sensitivity to antibiotic of antisense-expressing clones ([2]; clones antisense to non-protein synthesis genes elaD, atpB/E and visC): do not; sensitivity to antibiotic of antisense-expressing clones ([2]; clones antisense to protein synthesis genes (L7/L12 & L10, L7/L12 alone, L22, L18, rRNA, Elongation Factor G)): increased sensitivity
CC(=O)O[C@H]1C[C@@]2(C)[C@@H](C[C@@H](O)[C@H]3[C@@]4(C)CC[C@@H](O)[C@@H](C)[C@@H]4CC[C@@]32C)/C1=C(\CCC=C(C)C)C(=O)O [fusidic acid] | not significantly different | 
CCC[C@@H]1C[C@@H](C(=O)N[C@@H]([C@H]2O[C@H](SC)[C@H](O)[C@@H](O)[C@H]2O)[C@@H](C)O)N(C)C1 [lincomycin] | not significantly different | 
CCn1cc(C(=O)O)c(=O)c2ccc(C)nc21 [nalidixic acid] |  | sensitivity to antibiotic of antisense-induced cells ([2]; E. coli expressing antisense to rplL and rplJ (reduced L7/L12), IPTG): does not show increased sensitivity
CO[C@@H]1[C@@H](OC(N)=O)[C@@H](O)[C@H](Oc2ccc3c(O)c(NC(=O)c4ccc(O)c(CC=C(C)C)c4)c(=O)oc3c2C)OC1(C)C [novobiocin] | significantly different | 
NC[C@H]1O[C@H](O[C@H]2[C@H](O)[C@@H](O[C@H]3O[C@H](CO)[C@@H](O)[C@H](N)[C@H]3O)[C@H](N)C[C@@H]2N)[C@H](N)C[C@@H]1O [tobramycin] | not significantly different | 
COc1cc(Cc2cnc(N)nc2N)cc(OC)c1OC [trimethoprim] | not significantly different | 
CN[C@H](CC(C)C)C(=O)N[C@H]1C(=O)N[C@@H](CC(N)=O)C(=O)N[C@H]2C(=O)N[C@H]3C(=O)N[C@H](C(=O)N[C@H](C(=O)O)c4cc(O)cc(O)c4-c4cc3ccc4O)[C@H](O)c3ccc(c(Cl)c3)Oc3cc2cc(c3O[C@@H]2O[C@H](CO)[C@@H](O)[C@H](O)[C@H]2O[C@H]2C[C@](C)(N)[C@H](O)[C@H](C)O2)Oc2ccc(cc2Cl)[C@H]1O [vancomycin] | not significantly different | 
